{"source": "patent US10766865B2", "about": "“PKM2 modulators and methods for their use” (TOLERO PHARMACEUTICALS, INC., priority 2012, dated 2020)", "key": {"PKM2 [1]": {"target": "T1, PKM2 (Homo sapiens, UniProt P14618)", "assay": "Cell-Based Pyruvate Kinase Activity Assay, NCI-H1299", "set-up": "host or cells: A549 or NCI-H1299 lung cancer cells", "details": "NCI-H1299, 30 minutes with compound, n = 4; read-out: Cellular PKM2 activation EC50", "protocol": "(§1) Cell-Based Pyruvate Kinase Activity Assay\n(§2) A549 or NCI-H1299 lung cancer cells were plated at 20,000 cells per well (96-well plate) in MEM media plus 10% FBS, with no additional glutamine or pyruvate. Following overnight incubation, cells were washed with PBS followed by 4 hour incubation in MEM media. Compounds were added to the cells in 1% final concentration DMSO. After 30 minutes, cells were lysed, and pyruvate kinase activity in lysates was determined by Pyruvate Kinase Activity Assay (BioVision, Milpitas, Calif.). Maximum velocity values were calculated from the kinetic data, and AC50 values were determined using Prism GraphPad Software (La Jolla, Calif.). Compound washout experiments were as described above, except after a 30 minute incubation with Example 244 (469 nM), the cells were washed with PBS followed by the addition of MEM media for the indicated time period, lysed and pyruvate kinase activity determined. Results are tabulated in Table 3 and presented graphically in FIGS. 6A and 6B."}, "PKM2 [2]": {"target": "T1, PKM2", "assay": "PKM2 Biochemical Assay", "experimental": "Full length, human PKM2 enzyme was obtained from Promab (Richmond, Calif.). All reagents, unless otherwise noted, were obtained from Sigma (St. Louis, Mo.).\nCompounds were pre-incubated with 2 nM PKM2 in reaction buffer (50 mM Tris-HCl, pH 8.0, 200 mM KCl, 30 mM MgCl2, 2 mM DTT, 5% DMSO) for 30 min at ambient temperature. […] After 30 min, ATP formation was measured by Kinase Glo (Promega, Madison, Wis.), and AC50 values were determined using Prism (GraphPad Software, Inc., La Jolla, Calif.)."}, "PKM2 [3]": {"target": "T1, PKM2", "assay": "Cell-Based Pyruvate Kinase Activity Assay, A549", "set-up": "host or cells: A549 or NCI-H1299 lung cancer cells", "details": "A549, 30 minutes with compound, n = 4; read-out: Cellular PKM2 activation EC50", "protocol": "as §1, §2"}}}
{"smiles": "O=C(c1cc(Cl)n[nH]1)N(Cc1ccc(O)cc1F)CC1CCC1", "note": "[Example 244, N-(2-fluoro-4-hydroxybenzyl)-3-chloro-N-(cyclobutylmethyl)-1H-pyrazole-5-carboxamide]", "values": [{"measurement": "EC50", "setting": "PKM2 [1]", "value": "300 ± 70", "unit": "nM"}, {"measurement": "Emax", "setting": "PKM2 [2]; read-out: % FBP (extent of maximal activation, relative to FBP)", "value": "107 ± 10", "unit": "%"}, {"measurement": "AC50", "setting": "PKM2 [2]; read-out: AC50 (concentration of half-maximal PKM2 activation), Table 2, n = 6 to 10", "value": "62 ± 23", "unit": "nM"}, {"measurement": "Maximal PKM2 activity", "setting": "PKM2 [2]; relative to activity in DMSO controls (normalized to 100%), FIG. 1B", "value": "approximately 600%"}, {"measurement": "EC50", "setting": "PKM2 [3]", "value": "450 ± 180", "unit": "nM"}]}
